Data: US11993588B2, “Crystalline forms of a MAGL inhibitor” (H. Lundbeck A/S, priority 2016, dated 2024)

Legend:
Assay type in all cases: physicochemical
[1] = Competitive slurrying of Form 1 and 2 mixtures; conditions: 50:50 Form 1 and 2 slurries in acetone, ethyl acetate, methylethyl ketone, 2-propanol; 60° C. and ambient, ca. 48 hours
Protocol: Four solvents (acetone, ethyl acetate, methylethyl ketone, and 2-propanol) were chosen for competitive slurrying. Saturated solutions were prepared of Form 1 in the chosen solvents and added to 20 mg of 50:50 Form 1 and 2 mixtures to create slurries. The slurries were shaken at 60° C. and ambient temperature for ca. 48 hours. Solids were then isolated by centrifuge filtration and analysed by XRPD.

[2] = Solvent solubility screen for Compound 2; conditions: amorphous HCl salt; for solubility: 40 °C, thermodynamic from solid, read-out: Approximate Solubility
Protocol: Approximately 10 mg of amorphous HCl salt (from 500 mg batch) was placed in each of 28 vials and 5 volume aliquots of the appropriate solvent systems were added to the appropriate vial. Between each addition, the mixture was checked for dissolution and if no dissolution was apparent, the mixture was heated to ca. 40° C. and checked again. This procedure was continued until dissolution was observed or 100 volumes of solvent had been added. Then a further addition of 100 volumes was added to samples which had not dissolved. If 200 volumes of solvent were added without dissolution of the material, solubility was calculated to be below this point.

[3] = Dynamic vapor sorption (DVS)
Protocol: Approximately 10 mg of sample was placed into a mesh vapour sorption balance pan and loaded into a DVS-1 dynamic vapour sorption balance by Surface Measurement Systems. The sample was subjected to a ramping profile from 40-90% relative humidity (RH) at 10% increments, maintaining the sample at each step until a stable weight had been achieved (99.5% step completion). After completion of the sorption cycle, the sample was dried using the same procedure to 0% RH and then a second sorption cycle back to 40% RH. The weight changes during the sorption/desorption cycles were plotted, allowing for the hygroscopic nature of the sample to be determined. XRPD analysis was then carried out on any solid retained.

7-day stability testing = experiment: 7-day stability testing
Protocol: (§1) Form 2 of Compound 2 was scaled up in two solvents. Material underwent 7-day stability testing and/or aqueous solubility assessment. The 7-day stability testing was conducted as follows. Material was exposed to environments of 40° C./75% RH, ambient light and 80° C. for 7 days and the resulting solids analysed by XRPD to determine if any changes had occurred, and by HPLC to determine purity. The aqueous solubility assessment was conducted as follows. A slurry was created in deionised water (5.1 mg of Form 2 and 300 μL of water) and shaken for ca. 24 hours at ambient temperature (ca. 22° C.). The initial pH and final pH were measured. The resulting mixture was then isolated by centrifuge filtration, and the solution obtained analysed by HPLC to calculate the concentration of material dissolved. Remaining solid was analysed by XRPD to determine if any changes had occurred on slurrying.

[4] = Aqueous solubility assessment
Protocol: as §1

[5] = Gravimetric vapor sorption (GVS); conditions: for weight uptake / hygroscopic nature: GVS; for weight uptake: at 90% RH; for Post-GVS analysis by XRPD (form change): after GVS sorption/desorption cycle
Protocol: Approximately 10 mg of sample was placed into a mesh vapour sorption balance pan and loaded into an IGASorp Moisture Sorption Analyser balance by Hiden Analytical. The sample was subjected to a ramping profile from 40-90% relative humidity (RH) at 10% increments, maintaining the sample at each step until a stable weight had been achieved (98% step completion). After completion of the sorption cycle, the sample was dried using the same procedure to 0% RH, and finally taken back to the starting point of 40% RH. The weight change during the sorption/desorption cycles were plotted, allowing for the hygroscopic nature of the sample to be determined.

[6] = Heating to 140° C., cooling and XRPD; conditions: heated to 140° C. and allowed to cool
Protocol: Material from Compound 2 (Form 1) was also heated to 140° C. and allowed to cool. The material was analysed by XRPD (FIG. 12), to determine any form change, which could be consistent with a solid-solid transition.

[7] = Solubility measurement in t-BME; conditions: organic solvent or mixture, thermodynamic from solid; solvent addition method, 10 mg sample, up to 100 mL t-BME
Protocol: Solubility of Form 1 of Compound 2 was measured using the solvent addition method as described in Example 14 on 10 mg of sample. t-BME was added in 1 mL aliquots up to 10 mL, then in 5 mL and 10 mL aliquots up to a total volume of 100 mL.

[8] = listed as Form 1 of Compound 2, mono-HCl salt
[9] = listed as Form 2 (Compound 2), mono-HCl salt

Structure (SMILES): Cl.O=C(OC(C(F)(F)F)C(F)(F)F)N1CCN(Cc2ccc(C(F)(F)F)cc2N2CCCC2)CC1 [Compound 2, 1,1,1,3,3,3-hexafluoropropan-2-yl 4-(2-(pyrrolidin-1-yl)-4-(trifluoromethyl)benzyl)piperazine-1-carboxylate mono-HCl salt]
- relative thermodynamic stability of polymorphs [1]: thermodynamically more stable than Form 1
- solubility ([2]; aqueous with cosolvent or surfactant or cyclodextrin, 2-Propanol:water (50%), partial dissolution): < 5 mg/mL
- solubility ([2]; aqueous with cosolvent or surfactant or cyclodextrin, Acetone:water (50%), partial dissolution): < 5 mg/mL
- solubility ([2]; aqueous with cosolvent or surfactant or cyclodextrin, Methanol:water (50%)): < 5 mg/mL
- solubility ([2]; organic solvent or mixture, 1,4-Dioxane): 5 mg/mL
- solubility ([2]; organic solvent or mixture, 1-Butanol): < 5 mg/mL
- solubility ([2]; organic solvent or mixture, 2-Ethoxyethanol, precipitated overnight): 49 mg/mL
- solubility ([2]; organic solvent or mixture, 2-Methyl tetrahydrofuran): < 5 mg/mL
- solubility ([2]; organic solvent or mixture, 2-Propanol): 5 mg/mL
- solubility ([2]; organic solvent or mixture, Acetone): 40 mg/mL
- solubility ([2]; organic solvent or mixture, Acetonitrile): 40 mg/mL
- solubility ([2]; organic solvent or mixture, Anisole, partial dissolution): < 5 mg/mL
- solubility ([2]; organic solvent or mixture, Dichloromethane, precipitated overnight): 70 mg/mL
- solubility ([2]; organic solvent or mixture, Diisopropyl Ether): < 5 mg/mL
- solubility ([2]; organic solvent or mixture, Dimethylacetamide): 99 mg/mL
- solubility ([2]; organic solvent or mixture, Dimethylformamide): 99 mg/mL
- solubility ([2]; organic solvent or mixture, Dimethylsulfoxide): 66 mg/mL
- solubility ([2]; organic solvent or mixture, Ethanol): 33 mg/mL
- solubility ([2]; organic solvent or mixture, Ethyl acetate): 5 mg/mL
- solubility ([2]; organic solvent or mixture, Isopropyl acetate): < 5 mg/mL
- solubility ([2]; organic solvent or mixture, Methanol): 101 mg/mL
- solubility ([2]; organic solvent or mixture, Methyl isobutyl ketone, partial dissolution): < 5 mg/mL
- solubility ([2]; organic solvent or mixture, Methylethyl ketone): 28 mg/mL
- solubility ([2]; organic solvent or mixture, N-Methyl-2-pyrrolidone): 101 mg/mL
- solubility ([2]; organic solvent or mixture, Tetrahydrofuran, precipitated overnight): 25 mg/mL
- solubility ([2]; organic solvent or mixture, Toluene): < 5 mg/mL
- solubility ([2]; organic solvent or mixture, tert-Amyl alcohol): < 5 mg/mL
- solubility ([2]; organic solvent or mixture, tert-Butylmethyl ether): < 5 mg/mL
- solubility ([2]; Water): < 5 mg/mL
- concentration at which dissolution was initially observed ([2]; Acetone:water (50%), precipitated after ca. 2 h): 18000 µg/mL
- hygroscopic nature ([3]; DVS): non-hygroscopic
- total uptake ([3]; DVS, at 90% RH): < 0.12%
- Post-DVS XRPD analysis (form change) ([3]; after DVS cycle): remain the same crystalline form
- HPLC purity after stability testing (7-day stability testing; 40° C./75% RH for 7 days): > 99.9%
- solid form by XRPD after stability testing (7-day stability testing; 40° C./75% RH, ambient light and 80° C. for 7 days): remain the same form
- HPLC purity after stability testing (7-day stability testing; 80° C. for 7 days): 99.9%
- HPLC purity after stability testing (7-day stability testing; ambient light / ambient conditions for 7 days): > 99.9%
- dissociation of the salt in water [4, 8]: dissociates readily to the free base
- dissociation of the salt in water [4, 9]: dissociate to the free base
- solubility at 24 h ([4]; thermodynamic from solid, slurry in deionised water, ca. 24 hours, ambient (ca. 22° C.), initial pH 1.87, final pH 1.68): 0.5 mg/mL
- weight uptake [5, 8]: < 0.1%
- weight uptake [5, 9]: < 0.08%
- hygroscopic nature [5, 8]: very non-hygroscopic
- hygroscopic nature [5, 9]: (very) non-hygroscopic
- Post-GVS analysis by XRPD (form change) [5, 8]: remain unchanged
- Post-GVS analysis by XRPD (form change) [5, 9]: remained the same crystalline form
- form change by XRPD after heating [6]: remain unchanged
- solubility [7]: < 0.1 mg/mL
